Source: the NIST ThermoML archive (doi:10.1007/s10765-005-5572-8)

How the values were obtained:
[1] = refractive index (Na D-line) (dimensionless); xn = mol fraction of the nth substance listed; settings: 298.15 K, 101 kPa, Liquid, Standard Abbe refractometry
[2] = xn = mol fraction of the nth substance listed; settings: 298.15 K, 101 kPa, Liquid
[3] = refractive index (Na D-line) (dimensionless); settings: 298.15 K; 101.33 kPa; Liquid; Standard Abbe refractometry
[4] = 298.15 K; 101 kPa; Liquid

CCCCCC [hexane] + CC(C)CCCC(C)CCCC(C)CCCCC(C)CCCC(C)CCCC(C)C
x2 = 0
Settings | mass density [kg/m3] | refractive index | viscosity [mPa·s]
[1] | – | 1.3745 | –
[2] | 654.8 | – | 0.294

CCCCCC [hexane] + C1CCCCC1
[2], x2 = 0
Settings | mass density [kg/m3] | viscosity [mPa·s]
– | 654.8 | 0.294

CCCCCCCCCC [decane]
Settings | mass density [kg/m3] | refractive index | viscosity [mPa·s]
[3] | – | 1.41 | –
[4] | 726.2 | – | 0.859

CCCCCCCCCCCCCCCC [hexadecane] + CCCCCC
Settings | mass density, [2] [kg/m3] | refractive index, [1] | viscosity, [2] [mPa·s]
x1 = 0.0284 | 662.1 | 1.3784 | 0.322
x1 = 0.0757 | 673.3 | 1.386 | 0.382
x1 = 0.1349 | 685.7 | 1.395 | 0.473
x1 = 0.1842 | 694.9 | 1.4006 | 0.559
x1 = 0.266 | 708.4 | 1.4087 | 0.703
x1 = 0.3427 | 719.1 | 1.4147 | 0.864
x1 = 0.4864 | 735.5 | 1.4262 | 1.205
x1 = 0.503 | 737.1 | 1.4266 | 1.24
x1 = 0.6779 | 751.8 | 1.4318 | 1.735
x1 = 0.7546 | 757 | 1.432 | 2.022
x1 = 0.8927 | 765.1 | 1.4322 | 2.562
x1 = 0.9468 | 768 | 1.4332 | 2.805
x1 = 0.9902 | 770.1 | 1.434 | 3.012
x1 = 1 | 770.6 | 1.434 | 3.039

C1CCCCC1 [cyclohexane] + CCCCCC
[2]
Settings | mass density [kg/m3] | viscosity [mPa·s]
x1 = 0.0357 | 658.2 | 0.295
x1 = 0.1127 | 665.9 | 0.301
x1 = 0.2 | 674.9 | 0.312
x1 = 0.3288 | 688.6 | 0.342
x1 = 0.462 | 703.5 | 0.405
x1 = 0.5424 | 712.9 | 0.451
x1 = 0.577 | 717 | 0.472
x1 = 0.6703 | 728.4 | 0.539
x1 = 0.7543 | 739.2 | 0.603
x1 = 0.8703 | 754.9 | 0.71
x1 = 0.9451 | 765.5 | 0.794
x1 = 0.974 | 769.7 | 0.842
x1 = 0.9935 | 772.7 | 0.894
x1 = 1 | 773.7 | 0.898

CCCCCC [hexane]
Settings | mass density [kg/m3] | refractive index | viscosity [mPa·s]
[3] | – | 1.3745 | –
[4] | 654.8 | – | 0.294

CCCCCC [hexane] + CCCCCCCCCC
x2 = 0
Settings | mass density [kg/m3] | refractive index | viscosity [mPa·s]
[1] | – | 1.3745 | –
[2] | 654.8 | – | 0.294

CCCCCCCCCCCCCCCC [hexadecane]
Settings | mass density [kg/m3] | refractive index | viscosity [mPa·s]
[3] | – | 1.434 | –
[4] | 770.6 | – | 3.039

CCCCCCCCCC [decane] + CCCCCC
Settings | mass density, [2] [kg/m3] | refractive index, [1] | viscosity, [2] [mPa·s]
x1 = 0.021 | 657.1 | 1.3755 | 0.296
x1 = 0.0659 | 662 | 1.378 | 0.307
x1 = 0.1584 | 671.3 | 1.382 | 0.337
x1 = 0.233 | 678.1 | 1.3854 | 0.355
x1 = 0.2761 | 681.8 | 1.3871 | 0.377
x1 = 0.3493 | 687.8 | 1.39 | 0.417
x1 = 0.4506 | 695.3 | 1.394 | 0.471
x1 = 0.541 | 701.4 | 1.3973 | 0.518
x1 = 0.6382 | 707.4 | 1.4004 | 0.567
x1 = 0.7836 | 715.6 | 1.4045 | 0.657
x1 = 0.9095 | 722 | 1.408 | 0.772
x1 = 0.9654 | 724.7 | 1.4095 | 0.823
x1 = 0.9936 | 726 | 1.4099 | 0.855
x1 = 1 | 726.2 | 1.41 | 0.859

C1CCCCC1 [cyclohexane]
Settings | mass density [kg/m3] | refractive index | viscosity [mPa·s]
[3] | – | 1.4235 | –
[4] | 773.7 | – | 0.898

CC(C)CCCC(C)CCCC(C)CCCCC(C)CCCC(C)CCCC(C)C (stereo not drawn) [2,6,10,15,19,23-hexamethyltetracosane]
Settings | mass density [kg/m3] | refractive index | viscosity [mPa·s]
[3] | – | 1.4474 | –
[4] | 805.4 | – | 31.12

CC(C)CCCC(C)CCCC(C)CCCCC(C)CCCC(C)CCCC(C)C (stereo not drawn) [2,6,10,15,19,23-hexamethyltetracosane] + CCCCCC
Settings | mass density, [2] [kg/m3] | refractive index, [1] | viscosity, [2] [mPa·s]
x1 = 0.0144 | 663.9 | 1.3798 | 0.405
x1 = 0.0481 | 682.1 | 1.3904 | 0.593
x1 = 0.0748 | 694.2 | 1.3976 | 0.727
x1 = 0.1218 | 711.9 | 1.4068 | 0.971
x1 = 0.1779 | 728.5 | 1.4153 | 1.413
x1 = 0.2858 | 751.4 | 1.4244 | 2.923
x1 = 0.3695 | 764 | 1.431 | 4.685
x1 = 0.4258 | 770.7 | 1.4349 | 6.068
x1 = 0.5661 | 783.6 | 1.4435 | 10.15
x1 = 0.718 | 793.5 | 1.4468 | 15.59
x1 = 0.807 | 798 | 1.4468 | 19.6
x1 = 0.8939 | 801.7 | 1.447 | 24.32
x1 = 0.9593 | 804.1 | 1.447 | 28.41
x1 = 0.9943 | 805.2 | 1.4472 | 30.74
x1 = 1 | 805.4 | 1.4474 | 31.12

CCCCCC [hexane] + CCCCCCCCCCCCCCCC
x2 = 0
Settings | mass density [kg/m3] | refractive index | viscosity [mPa·s]
[1] | – | 1.3745 | –
[2] | 654.8 | – | 0.294
